Like-named read-outs stand apart in the source and are kept apart here. Marks after values point to notes of the source that are not given here. Ends that are not written are not given here.

In data set [1] the test system is Dipeptidyl Peptidase IV (DP IV, CD26). Briefly: Inhibition of DP IV (CD26) proteinase activity, Ki. The note with it: soluble DP IV (CD26). The data set is classed as biochemical. The text has this: Assays to measure CD26 (DP IV) activity will be performed on both the homobivalent compounds, e.g., Lys-boroPro coupled to another, and the heterobivalent compounds, e.g., Lys-boroPro coupled to a peptide specific for a T cell surface receptor, e.g., moth cytochrome C peptide. Methods for quantitatively measuring the interaction of small peptidomimetic inhibitors with CD26 or DP IV, as well as for the interaction of CD26 with larger ligands, e.g., the HIV Tat protein, have been developed (W. G. Gutheil and W. W. Bachovchin. Separation of L-Pro-DL-boroPro into Its Component Diastereomers and Kinetic analysis of Their Inhibition of Dipeptidyl Peptidase IV. A New Method for the Analysis of Slow, Tight-Binding Inhibition, Biochemistry 32, 8723-8731 (1993); Gutheil, W. G., and W., B. W. Kinlsq, A Matlab Program for Fitting Kinetics Data with Numerically Integrated Rate Equations and Its Application to the Analysis of Slow, Tight Binding Data, Analytical Biochemistry 223, 13-20 (1994); Gutheil, W. G., Subramanyam, M., Flentke, G. R., Sanford, D. G., Munoz, E., Huber, B. T., and Bachovchin, W. W. HIV-1 Tat Binds to DP IV (CD26): A possible Mechanism for Tat's Immunosuppressive Activity, Proc. Natl. Acad. Sci. U.S.A. 91, 6594-6598 (1994)). These methods use the chromatogenic substrate Ala-Pro-p-nitroanilide (APpNA) and fluorescent substrate Ala-Pro-7-amino-4-trifluoromethyl coumarin (AP-AFC). APpNA and AP-AFC are commercially available (e.g., Enzyme Systems Products, Dublin, Calif.).

The conditions of data set [2]: mice; cited from earlier work.
Data set [3] concerns H9 cells. The experiment in a line: IL-2 production by H9 cells stimulated with anti-CD3 mAb OKT3 (HT2 bioassay). It counts as cell-based. As to the method:
To determine the effect KbP2-Adipate had on anti-CD3 mAb stimulation of H9 cells, e.g., stimulation of suppressing IL-2 production, the following protocol was used.
In quadruplicate wells, H9 cells were preincubated with KbP2-Adipate for 0, 30, 60, or 150 min. After the preincubation, the cells were seeded into a 96 well flatbottom plate pre-coated with anti-CD3 monoclonal antibody OKT3 at 1,000, 5,000, 10,000, 20,000, 50,000, or 100,000 times dilution of stock. After 24 hr, the cells were lysed by freezing at […]. IL-2 concentration in the H9 cells lysates was bioassayed using the IL-2 dependent cell line HT2, Watson, J. D. “Continuous proliferation of murine antigen specific helper T lymphocytes in culture,” 1979, Journal of Experimental Medicine, 150:1510. HT2 proliferation was measured by counting 3H-thymidine incorporation.
Similar experiments were carried out with (KbP)2-EGS and the co-stimulatory antibody OKT3; the results of these experiments are shown in FIG. 12.

In data set [4] the test system is H9 cells. The experiment in a line: H9 cell viability, trypan blue hemocytometry counts and flow cytometry. It counts as cell-based. The text has this:
Possible explanations for the observed inhibitory activity shown in FIG. 3 were eliminated with proper negative controls.
On the technique in general: A flow cytometer gives signals particle by particle.

A short description of data set [5]: Conformational equilibrium of cyclic and open chain forms. It counts as physicochemical. The following applies: at equilibrium at pH 7.0. The source says:
G. Gutheil and W. W. Bachovchin, separation of L-Pro-DL-boroPro into Its Component Diastereomers and Kinetic Analysis of Their Inhibition of Dipeptidyl Peptidase IV. A New Method for the Analysis of Slow, Tight-Binding Inhibition, Biochemistry 32, 8723-8731 (1993)).

The test system of data set [6] is Dipeptidyl Peptidase IV (DP IV, CD26). The following applies: cited from earlier work.
In data set [7] the test system is T cell clone 2E5.G10.G5.E5. Briefly: T cell clone proliferation, thymidine uptake. It counts as cell-based. As to the method:
(§1) The proliferative effect of PLP-S-KbP on several different T cell clones that recognize PLP 139-151 were tested. T cell clones that recognize an irrelevant epitope, were used as negating controls. The protocol used is described (Kuchroo, V. K., et al., B7-1 and B7-2 Costimulatory Molecules Activate Differentially the Th1/Th2 Developmental Pathways: Application to Autoimmune Disease Therapy, Cell 80, 707-718 (1995)) and is incorporated herein by reference. Proliferation was measured by thymidine uptake. Table 1 below compares the effect PLP-S-KbP, antigenic PLP 139-151 peptide and non-antigenic PLP 103-116 peptide has on proliferation in different five PLP 139-151 specific T cell clones.

In data set [8] the test system is T cell clone 4E3.B11.D9.H10.H6. The experiment in a line: T cell clone proliferation, thymidine uptake. The data set is classed as cell-based. The procedure:
as §1

In data set [9] the test system is T cell clone 5B8.G8.E6.H12. The experiment in a line: T cell clone proliferation, thymidine uptake. The data set is classed as cell-based. The procedure:
as §1

In a further data set the test system is T cell clone 7A5.F10.G11. Briefly: T cell clone proliferation, thymidine uptake. The data set is classed as cell-based. As to the method: as §1
Data set [10] has as its system T cell clone SPL.C1.H2.F2. Briefly: T cell clone proliferation, thymidine uptake. The data set is classed as cell-based. As to the method: as §1

For `NCCCC[C@H](N)C(=O)N1CCC[C@H]1B(O)O` (single isomer, unassigned) [L,D isomer, Lys-boroPro], the “DP IV inhibition” value in data set [1] is “non inhibitory”.

Regarding `NCCCC[C@H](N)C(=O)N1CCC[C@H]1B(O)O` (single isomer, unassigned) [L,L isomer, Lys-boroPro], in [1], the “DP IV inhibition” value is on record as “inhibitory”.

`C[C@H](N)C(=O)N1CCC[C@H]1B(O)O` [Ala-boroPro]: in data set [2], the “immune response in vivo (antibody production after antigen challenge)” value is “inhibited an immune response in vivo in mice”.

With `N[C@@H](CCCCNC(=O)CCCCC(=O)NCCCC[C@H](N)C(=O)N1CCC[C@H]1B(O)O)C(=O)N1CCC[C@H]1B(O)O` [KbP2-Adipate, di(L-Lysine-L-boroProline)adipate], the “shape of dose response on IL-2 production” value in the data set on H9 cells [3] was “decreases with increasing KbP2-Adipate concentrations”. Further, the “suppression of IL-2 production” value in the data set with H9 cells [3] (4.0×10^−10 M, anti-CD3 mAb stimulation of H9 cells (FIG. 4)) is 98%. For the same compound, the “concentration range where stimulatory effect begins” value with H9 cells [3] (FIG. 5) is recorded as roughly 1 pM. In addition, the “concentration range where stimulatory effect saturates” value in the data set with H9 cells [3] (FIG. 5) is on record as roughly 10 mM. The “augmentation of IL-2 production (co-stimulatory activity)” value in the data set with H9 cells [3] (higher concentrations (FIG. 5), depends on concentration and preincubation time) is given as “up to 4 fold”. Also, the “effect on IL-2 production” value is reported as “potent stimulator” in the data set with H9 cells [3] (higher concentrations, e.g. 10^−6 M (FIG. 5)) and “potent inhibitor” in the data set with H9 cells [3] (lower concentrations, e.g. 10^−10 M (FIG. 4)). For the same compound, the cell viability result in the data set on H9 cells [4] was “did not affect cell viability”.

Regarding `CC(N)C(=O)N1CCCC1B(O)O` [L-Ala-D,L-boroPro], in [1], the “DP IV inhibition” value is “potent inhibitors”.

Consider `O=C(C1CCCN1)N1CCCC1B(O)O` [L-Pro-D,L-boroPro], for which the “DP IV inhibition” value in data set [1] is reported as “potent inhibitors”.

For `O=C(C1CCCN1)N1CCCC1B(O)O` (stereo not shown) [Pro-boroPro], the “fraction existing as open chain, inhibitory species” value in data set [5] is “less than 1%”. For the same compound, the “immune response in vivo (antibody production after antigen challenge)” value in data set [2] is on record as “inhibited an immune response in vivo in mice”.

`CC(C)C(N)C(=O)N1CCCC1B(O)O` (stereo not shown) [Val-boroPro]: the “fraction existing as open chain, inhibitory species” value in data set [5] is “less than 0.1%”.

As to `OB(O)C1CCCN1` (stereo not shown) [boroPro], the “DP IV inhibition” value in data set [6] was “not an effective inhibitor”.

“HSLGKWLGHPDKF [PLP 139-151, peptide corresponding to residues 139-151 of myelin proteolipid protein]”: the “proliferation, thymidine uptake” value is given as 101 ^3H counts in [7] (dose 0.1 μM); 288 ^3H counts in data set [7] (dose 1 μM); 70 ^3H counts in [7] (dose 10 μM); 1,506 ^3H counts in [7] (dose 100 μM); 318 ^3H counts in data set [8] (dose 0.1 μM); 125 ^3H counts in [8] (dose 1 μM). Besides, the “proliferation, thymidine uptake” value was 534 ^3H counts in [8] (dose 10 μM); 1,932 ^3H counts in data set [8] (dose 100 μM); 106 ^3H counts in data set [9] (dose 0.1 μM); 349 ^3H counts in [9] (dose 1 μM); 9,176 ^3H counts in data set [9] (dose 10 μM); 41,073 ^3H counts in [9] (dose 100 μM). Further, the “proliferation, thymidine uptake” value with T cell clone 7A5.F10.G11 (dose 0.1 μM) was 117 ^3H counts; in the data set with T cell clone 7A5.F10.G11 (dose 1 μM), 222 ^3H counts; in the data set on T cell clone 7A5.F10.G11 (dose 10 μM) it was 406 ^3H counts; in the data set on T cell clone 7A5.F10.G11 (dose 100 μM), 2,324 ^3H counts; in [10] (dose 0.1 μM), 423 ^3H counts; in data set [10] (dose 1 μM), 107 ^3H counts. For the same compound, the “proliferation, thymidine uptake” value in [10] (dose 10 μM) was 400 ^3H counts; in [10] (dose 100 μM), 809 ^3H counts.

For the compound “HSLGKWLGHPDKFAAAAAA-εKbP (not fully specified (C-terminus); printed as HSLGKWLGHPDKFAAAAAA-εKbP; also: C-terminus joined to epsilon-amino of Lys, which carries boroPro) [PLP-S-KbP, Lys-boroPro linked by its ε-amino group via six alanines to the C terminus of PLP 139-151]”, the “proliferation, thymidine uptake” value in data set [7] (dose 0.1 μM) is 175 ^3H counts; in data set [7] (dose 1 μM), 7,738 ^3H counts; in data set [7] (dose 10 μM), 26,410 ^3H counts; in [7] (dose 100 μM) it was 36,686 ^3H counts; in data set [8] (dose 0.1 μM) it was 3,688 ^3H counts; in data set [8] (dose 1 μM) it was 8,580 ^3H counts. The “proliferation, thymidine uptake” value in data set [8] (dose 10 μM) is on record as 15,753 ^3H counts; in data set [8] (dose 100 μM), 17,608 ^3H counts; in data set [9] (dose 1 μM) it was 22,022 ^3H counts; in [9] (dose 10 μM), 53,628 ^3H counts; in data set [9] (dose 100 μM) it was 34,716* ^3H counts; with T cell clone 7A5.F10.G11 (dose 0.1 μM) it was 187 ^3H counts. For the same compound, the “proliferation, thymidine uptake” value with T cell clone 7A5.F10.G11 (dose 1 μM) is 8,202 ^3H counts; in the data set with T cell clone 7A5.F10.G11 (dose 10 μM), 35,521 ^3H counts; with T cell clone 7A5.F10.G11 (dose 100 μM), 43,999 ^3H counts; in data set [10] (dose 0.1 μM) it was 681 ^3H counts; in data set [10] (dose 1 μM) it was 2,527 ^3H counts; in data set [10] (dose 10 μM), 17,516 ^3H counts. The “proliferation, thymidine uptake” value in data set [10] (dose 100 μM) was 31,635 ^3H counts.

Take “PLP103-116: non-antigenic PLP 103-116 peptide (DYKTTICGKGLSAT)”: the “proliferation, thymidine uptake” value is on record as 307 ^3H counts in [7] (dose 0.1 μM); 434 ^3H counts in data set [7] (dose 1 μM); 60 ^3H counts in data set [7] (dose 10 μM); 107 ^3H counts in data set [7] (dose 100 μM); 178 ^3H counts in [8] (dose 0.1 μM); 559 ^3H counts in [8] (dose 1 μM). For the same compound, the “proliferation, thymidine uptake” value in data set [8] (dose 10 μM) was 224 ^3H counts; in data set [8] (dose 100 μM) it was 274 ^3H counts; in [9] (dose 0.1 μM), 124 ^3H counts; in data set [9] (dose 1 μM), 226 ^3H counts; in data set [9] (dose 10 μM) it was 74 ^3H counts; in data set [9] (dose 100 μM), 143 ^3H counts. Besides, the “proliferation, thymidine uptake” value in the data set on T cell clone 7A5.F10.G11 (dose 0.1 μM) was 556 ^3H counts; in the data set with T cell clone 7A5.F10.G11 (dose 1 μM), 314 ^3H counts; in the data set on T cell clone 7A5.F10.G11 (dose 10 μM) it was 117 ^3H counts; in the data set on T cell clone 7A5.F10.G11 (dose 100 μM) it was 124 ^3H counts; in data set [10] (dose 0.1 μM), 238 ^3H counts; in data set [10] (dose 1 μM), 123 ^3H counts. The “proliferation, thymidine uptake” value in data set [10] (dose 10 μM) is 479 ^3H counts; in [10] (dose 100 μM) it was 150 ^3H counts.

The record behind these values is patent US6875737B1, “Multivalent compounds for crosslinking receptors and uses thereof” (Trustees of Tufts College, priority 1996, dated 2005).
